Holding throughout (format): cell-based
Assay [1] has as its system Seven species of bacteria and one species of fungus. Briefly: Disk diffusion assay, whole panel. Conditions: all bacteria and fungus of the screening. The source says:
(§1) Microorganisms: Laboratory strains of bacteria and fungus were obtained from Dr. Neil Towers' and Dr. Jovel's lab, The University of British Columbia. Seven species of bacteria and one species of fungus will be used in the screening process. The bacteria strains consisted of Staphylococcus aureus, methicillin resistant Staphylococcus aureus, Bacillus subtilis and Enterococcus faecalis, Escherichia coli, Pseudomonas aeruginosa, and Salmonella typhimurium. The fungal species was Candida albicans.
(§2) Methods: Disk diffusion assay on agar plates inoculated with the organisms being studies. The plates were divided into quadrants or sixths using a black marking pen. In quadrant 1 and 2, negative and positive controls were run (no treatment and gentamicin). Test compounds were run on the remaining available portions.

The subject of another assay is Pseudomonas aeruginosa. Briefly: Disk diffusion assay on agar plates. Also noted: key: “+” active; “−” not active.
Excerpt: as §1, §2
For orientation: Agar diffusion results depend on both activity and mobility in agar.

The test system of another assay is Enterococcus faecalis. Briefly: Disk diffusion assay on agar plates. Also noted: key: “+” active; “−” not active.
Excerpt: as §1, §2

Another assay relates to Candida albicans. Briefly: Disk diffusion assay on agar plates. Also noted: key: “+” active; “−” not active.
Excerpt: as §1, §2

The values that follow come from patent US20090283473A1, “PLANT MATERIALS EXTRACTION METHOD” (Xylon Biotechnologies Ltd., priority 2002, published 2009).

Regarding `CC1(C)C=CC=C(C(=O)O)C=C1` [Thujic acid standard, Thujic acid], in assay [1], the “anti-microbial activity across the panel (in words)” value is “showed activities against some bacteria and fungus”. Besides, the “Anti-microbial activity P.a” value in the assay with Pseudomonas aeruginosa is reported as “−”.
Turning to `CC(C)c1cccc(=O)c(O)c1` [Hinokitiol standard, 2,4,6-Cycloheptatrien-1-one,2-hydroxy-4-(1-methylethyl)], the “anti-microbial activity across the panel (in words)” value in assay [1] is “demonstrated activities against all the bacteria and fungus”.
Turning to Gentamicin, the “anti-microbial activity across the panel (in words)” value in assay [1] is “active against all the tested bacteria but not against C. albicans”. In the assay with Enterococcus faecalis, the “Anti-microbial activity E.f.” value is recorded as “+”. Moreover, the “Anti-microbial activity C.a” value in the assay on Candida albicans is recorded as “−”.
